Test [1] has as its target T1, Full-length human Chk1 protein (Homo sapiens, UniProt O14757).
T1 construct: purchased Carna Biosciences, Inc. 02-117
T1 sequence (O14757 1-476): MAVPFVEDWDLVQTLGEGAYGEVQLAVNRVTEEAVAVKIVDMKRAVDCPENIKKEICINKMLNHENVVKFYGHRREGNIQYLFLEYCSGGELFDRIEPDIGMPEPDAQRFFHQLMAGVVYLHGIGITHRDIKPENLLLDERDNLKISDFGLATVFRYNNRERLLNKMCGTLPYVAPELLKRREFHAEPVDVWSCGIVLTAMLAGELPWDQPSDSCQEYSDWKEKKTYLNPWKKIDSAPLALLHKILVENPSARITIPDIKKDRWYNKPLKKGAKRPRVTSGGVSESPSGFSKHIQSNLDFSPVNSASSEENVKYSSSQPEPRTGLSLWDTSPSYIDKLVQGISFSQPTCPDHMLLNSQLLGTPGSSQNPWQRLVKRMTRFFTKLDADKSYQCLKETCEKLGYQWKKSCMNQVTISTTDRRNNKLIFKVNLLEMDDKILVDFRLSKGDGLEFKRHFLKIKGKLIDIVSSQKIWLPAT
As to the kind of experiment: Kinase HTRF biochemical assay (HTRF KinEASE), Chk1 enzyme activity. As to conditions: full-length human Chk1, ATP 1 mM, 60 minutes at room temperature. The gist of the method:
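Full-length human Chk1 (0.012 ng/μL) in buffer with 5 mM MgCl2 and 1 mM DTT, preincubated with compound 10 min at room temperature; reaction with 120 nM biotinylated STK substrate 1 and 1 mM ATP for 60 min at room temperature. HTRF detection via cryptate antibody/streptavidin-XL665; IC50 from 10-point duplicate curves.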

The test system of another test is p-CHK1 (Ser345). As to the kind of experiment: AlphaLISA SureFire Ultra p-CHK1 (Ser345) cellular assay in HT29 cells. Type of test: cell-based. The gist of the method:
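HT29 cells treated with compounds over a 10-point, 3-fold dilution series for 16 h at 37° C., then lysed; p-CHK1 (Ser345) in lysates measured by AlphaLISA SureFire Ultra (acceptor and donor steps 1 h each at room temperature). IC50 from dose-response curve fits.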
For orientation: In Alpha technology, singlet oxygen from a donor bead excites a nearby acceptor bead.

Setting [2] is: Homo sapiens, HT-29, 16 h at 37° C.

The IC50 is the concentration that gives 50% inhibition. Read a high IC50 as weaker potency.

Turning to `Cc1ccc(O[C@@H]2CC[C@H](N)C2)c(-c2cc(Nc3cnc(C#N)cn3)n[nH]2)c1F` [Example 3-16, 5-((5-(6-(((1R,3S)-3-aminocyclopentyl)oxy)-2-fluoro-3-methylphenyl)-1H-pyrazol-3-yl)amino)pyrazine-2-carbonitrile], the IC50 in test [1] lay in the range of 10 to 100 nM; with p-CHK1 (Ser345) (setting [2]), 100 to 500 nM.

For `N#Cc1cnc(Nc2cc(-c3c(F)cccc3O[C@@H]3CC[C@H]3N)[nH]n2)cn1` [Example 3-33, 5-((5-(2-((1R,2R)-2-aminocyclobutoxy)-6-fluorophenyl)-1H-pyrazol-3-yl)amino)pyrazine-2-carbonitrile], the IC50 was 10 to 100 nM in test [1] and 50 to 100 nM with p-CHK1 (Ser345) (setting [2]).

Take `CCOc1cccc(O[C@H]2CC[C@H](N)CC2)c1-c1cc(Nc2cnc(C#N)cn2)n[nH]1` [Example 1-17, 5-((5-(2-(((1r,4r)-4-aminocyclohexyl)oxy)-6-ethoxyphenyl)-1H-pyrazol-3-yl)amino)pyrazine-2-carbonitrile]: the figures for the IC50 (in test [1]; in the test on p-CHK1 (Ser345) (setting [2])) were 10 to 100 nM and 500 to 1000 nM, respectively.

In the case of `COc1c(F)ccc(O[C@H]2CC[C@H](N)CC2)c1-c1cc(Nc2cnc(C#N)cn2)n[nH]1` [Example 1-20, 5-((5-(6-(((1r,4r)-4-aminocyclohexyl)oxy)-3-fluoro-2-methoxyphenyl)-1H-pyrazol-3-yl)amino)pyrazine-2-carbonitrile], the IC50 in test [1] is 10 to 100 nM; in the test on p-CHK1 (Ser345) (setting [2]), 100 to 500 nM.

For `N#Cc1cnc(Nc2cc(-c3ccccc3O[C@H]3CC[C@@H](N)CC3)[nH]n2)cn1` [Example 1-50, 5-((5-(2-(((1s,4s)-4-aminocyclohexyl)oxy)phenyl)-1H-pyrazol-3-yl)amino)pyrazine-2-carbonitrile], the results for the IC50 (in test [1]; in the test with p-CHK1 (Ser345) (setting [2])) were 100 to 500 nM and greater than 1000 nM, respectively.

Consider `CCCc1ccc(O[C@@H]2CC[C@H](N)C2)c(-c2cc(Nc3cnc(C#N)cn3)n[nH]2)n1` [Example 3-47, 5-((5-(3-(((1R,3S)-3-aminocyclopentyl)oxy)-6-propylpyridin-2-yl)-1H-pyrazol-3-yl)amino)pyrazine-2-carbonitrile], for which the IC50 in test [1] is no more than 10 nM; in the test on p-CHK1 (Ser345) (setting [2]), 50 to 100 nM.

Consider `N#Cc1cnc(Nc2cc(-c3ccccc3O[C@@H]3CC[C@@H](N)C3)[nH]n2)cn1` [Example 1-53, 5-((5-(2-(((1R,3R)-3-aminocyclopentyl)oxy)phenyl)-1H-pyrazol-3-yl)amino)pyrazine-2-carbonitrile], for which the IC50 in test [1] was no more than 10 nM; with p-CHK1 (Ser345) (setting [2]), 50 to 100 nM.

For the compound `Cc1ccc(O[C@@H]2CC[C@H](N)C2)c(-c2cc(Nc3cnc(C#N)cn3)n[nH]2)n1` [Example 1-57], the IC50 is no more than 10 nM in test [1] and 50 to 100 nM in the test on p-CHK1 (Ser345) (setting [2]).

`COc1cccc(O[C@@H]2CC[C@H](N)C2)c1-c1cc(Nc2cnc(C#N)cn2)n[nH]1` [Example 1-7, 5-((5-(2-(((1R,3S)-3-aminocyclopentyl)oxy)-6-methoxyphenyl)-1H-pyrazol-3-yl)amino)pyrazine-2-carbonitrile]: the IC50 was no more than 10 nM in test [1] and no more than 50 nM with p-CHK1 (Ser345) (setting [2]).

For the compound `N#Cc1cnc(Nc2cc(-c3nc(C4CC4)ccc3O[C@@H]3CC[C@H](N)C3)[nH]n2)cn1` [Example 4-5, 5-((5-(3-(((1R,3S)-3-aminocyclopentyl)oxy)-6-cyclopropylpyridin-2-yl)-1H-pyrazol-3-yl)amino)pyrazine-2-carbonitrile], the figures for the IC50 (in test [1]; in the test on p-CHK1 (Ser345) (setting [2])) were no more than 10 nM and no more than 50 nM, respectively.

For the compound `COc1cccc(O[C@H]2CC3(C[C@@H](N)C3)C2)c1-c1cc(Nc2cnc(C#N)cn2)n[nH]1` (stereo partly drawn) [Example 3-11, 5-((5-(2-((6-aminospiro[3.3]heptan-2-yl)oxy)-6-methoxyphenyl)-1H-pyrazol-3-yl)amino)pyrazine-2-carbonitrile], the IC50 in test [1] was no more than 10 nM; in the test on p-CHK1 (Ser345) (16 h at 37° C.), no more than 50 nM.

For the compound `CCOc1cccc(O[C@H]2C[C@H](N)C2)c1-c1cc(Nc2cnc(C#N)cn2)n[nH]1` [Example 1-12, 5-((5-(2-((1r,3r)-3-aminocyclobutoxy)-6-ethoxyphenyl)-1H-pyrazol-3-yl)amino)pyrazine-2-carbonitrile], the IC50 in test [1] is no more than 10 nM; with p-CHK1 (Ser345) (setting [2]), 100 to 500 nM.

Source of the values: US11707462B2, “Checkpoint kinase 1 (CHK1) inhibitors and uses thereof” (Boundless Bio, Inc., priority 2021, dated 2023).
